The structures appear in SMILES notation.

This is an account of results in US7858312B2, “Method of treating bladder and lower urinary tract syndromes” (Duke University, priority 1998, dated 2010).

Assay [1] deals with T1, α1aAR (Homo sapiens, UniProt P35348).
T1 construct: from tissue; host or cells: human bladder detrusor smooth muscle membranes
T1 sequence (P35348 1-466): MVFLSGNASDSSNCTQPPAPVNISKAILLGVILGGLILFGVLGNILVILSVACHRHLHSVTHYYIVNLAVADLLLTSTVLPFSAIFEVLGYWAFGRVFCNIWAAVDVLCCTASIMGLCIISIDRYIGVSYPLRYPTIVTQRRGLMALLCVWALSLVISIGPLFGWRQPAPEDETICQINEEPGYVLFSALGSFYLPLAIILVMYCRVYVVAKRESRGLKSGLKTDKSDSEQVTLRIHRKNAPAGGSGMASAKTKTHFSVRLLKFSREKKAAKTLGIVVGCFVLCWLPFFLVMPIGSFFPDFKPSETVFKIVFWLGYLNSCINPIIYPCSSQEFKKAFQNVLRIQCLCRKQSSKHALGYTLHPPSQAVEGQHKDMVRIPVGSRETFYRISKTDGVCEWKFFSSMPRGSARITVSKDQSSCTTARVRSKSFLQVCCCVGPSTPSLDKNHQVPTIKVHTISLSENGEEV
Briefly: BMY7378 competition binding vs [125I]HEAT in human detrusor membranes, low affinity site. The following applies: share of total binding sites with low affinity, two-site fit, n=13. The procedure:
(§1) Human detrusor and rat bladder membrane preparation. Human detrusor and rat whole bladder was minced over dry ice, and suspended in cold lysis buffer (5 mM Tris HCl and 5 mM EDTA, pH 7.4) with protease inhibitors benzamidine (10 mg/ml), leupeptin (5 mg/ml), and soybean trypsin inhibitor (10 mg/ml) (Sigma Chemical Company; St. Louis, Mo.). A lysate was prepared with a Polytron PT 3000 (Brinkmann; Westbury, N.Y.) at 10,000 rpm for 10 seconds. After pelleting at 40,000×g for 15 minutes (Sorvall SM24 rotor), membranes were suspended in cold resuspension buffer (150 mM NaCl, 50 mM Tris-HCl, 5 mM EDTA, pH 7.4) with protease inhibitors, and kept on ice for immediate use (or stored at −70° C. for later use). Protein content was determined using the bicinchoninic assay (BCA) with bovine serum albumin (BSA) standards (Pierce; Rockford, Ill.).
(§2) Reaction conditions were as described above. Curves were fit with […] regression analysis using InPlot software (GraphPad).

For assay [2], the target named is T2, α1bAR (Homo sapiens, UniProt P35368).
T2 construct: expressed in transfected cells; host or cells: rat-1 fibroblasts, stably transfected; membranes
T2 sequence (P35368 1-520): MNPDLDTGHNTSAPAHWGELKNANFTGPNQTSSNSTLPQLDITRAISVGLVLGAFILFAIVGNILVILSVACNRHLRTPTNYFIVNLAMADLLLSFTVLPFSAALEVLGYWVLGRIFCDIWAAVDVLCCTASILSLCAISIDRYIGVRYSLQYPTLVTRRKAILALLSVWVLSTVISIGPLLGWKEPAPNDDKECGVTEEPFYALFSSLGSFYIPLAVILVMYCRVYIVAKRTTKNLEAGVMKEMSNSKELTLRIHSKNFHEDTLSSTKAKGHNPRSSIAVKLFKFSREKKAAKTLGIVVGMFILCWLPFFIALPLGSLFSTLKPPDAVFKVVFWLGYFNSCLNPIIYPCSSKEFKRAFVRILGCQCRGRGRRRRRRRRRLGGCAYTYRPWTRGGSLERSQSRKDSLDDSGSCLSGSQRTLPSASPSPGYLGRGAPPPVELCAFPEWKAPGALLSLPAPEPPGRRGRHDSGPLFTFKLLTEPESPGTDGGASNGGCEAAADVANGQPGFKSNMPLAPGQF
Briefly: BMY7378 competition binding, membranes from rat-1 fibroblasts stably transfected with α1bAR (control). The following applies: Control α1b: rat-1 fibroblast membranes stably transfected with α1bAR; read-out: pKi α1bAR (converted).
Description: as §2

Assay [3] has as its target T3, α1dAR (Homo sapiens, UniProt P25100).
T3 construct: from tissue; host or cells: human bladder detrusor smooth muscle membranes
T3 sequence (P25100 1-572): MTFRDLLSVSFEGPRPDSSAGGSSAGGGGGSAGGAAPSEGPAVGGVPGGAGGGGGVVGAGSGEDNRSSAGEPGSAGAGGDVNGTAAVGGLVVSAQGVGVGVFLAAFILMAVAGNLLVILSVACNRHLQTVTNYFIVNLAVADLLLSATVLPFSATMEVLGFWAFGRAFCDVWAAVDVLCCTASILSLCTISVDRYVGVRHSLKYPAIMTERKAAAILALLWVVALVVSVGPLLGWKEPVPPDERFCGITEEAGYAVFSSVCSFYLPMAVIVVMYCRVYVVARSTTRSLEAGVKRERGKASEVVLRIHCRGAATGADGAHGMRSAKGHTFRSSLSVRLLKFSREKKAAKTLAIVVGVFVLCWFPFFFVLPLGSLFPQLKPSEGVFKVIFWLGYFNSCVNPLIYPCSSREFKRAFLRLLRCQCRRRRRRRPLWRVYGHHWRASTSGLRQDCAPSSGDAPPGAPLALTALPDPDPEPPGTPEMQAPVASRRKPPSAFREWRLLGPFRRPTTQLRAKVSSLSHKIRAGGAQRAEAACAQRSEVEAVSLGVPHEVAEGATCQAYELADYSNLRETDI
Briefly: BMY7378 competition binding vs [125I]HEAT in human detrusor membranes, high affinity site. Particulars: share of total binding sites with high affinity, two-site fit, n=13. The procedure: as §1, §2

The target in assay [4] is α1ARs in human detrusor. Briefly: [125I]HEAT saturation binding in human detrusor membranes. Particulars: saturation binding isotherm, n=5. The procedure: as §1
Radioligand binding. All mRNA and protein studies described were performed using detrusor from each patient described above (n=13). […] Dried filters were then counted in a gamma counter. Specific binding was calculated by subtracting nonspecific binding from total binding. […] Total α1AR density was then determined in each detrusor sample as described above, using a saturating concentration of [^125I]HEAT (300 pM). […]

Turning to `COc1ccccc1N1CCN(CCN2C(=O)CC3(CCCC3)CC2=O)CC1` [BMY7378], in assay [1], the “% Low” value was 35±3.1%. Also, the Ki in assay [2] is 7.94 µM. In assay [3], the “% High” value was found to be 66±3.1%.

As for `O=C1c2ccccc2CCC1CNCCc1ccc(O)c(I)c1` (stereo not shown) [[125I]HEAT], the affinity in assay [4], expressed as Kd, was 0.13 ± 0.00109 nM.
